From patent US10973779B2, “Astaxanthin compound composition and the method thereof” (Bioptik Technology, Inc., priority 2019, dated 2021)

Assays:
Format in all cases: in vivo, Syrian hamsters
[1] = tested on: hamsters fed with high cholesterol diet; assay: Animal experiments on lowering blood lipids: total cholesterol and triglyceride in the liver
Protocol: (§1) Male Syrian hamsters aged 6-7 weeks were tested for evaluating the effects of lowering blood lipid profile. Animals were divided into 6 groups, 8 hamsters in each group with a total of 48 hamsters. The experiment was conducted for 8 weeks, and the dosing method was oral gavage, and the animals of experimental groups were fed with the astaxanthin compound composition prepared according to the present invention. The dosage used was calculated according to the dosage for adult human. […] Based on this dosage, the 1×, 2× and 3× dosages were respectively defined for the following testing. The animals were fed with 1× (the converted dosage for hamster is 30.83 mg/kg), 2× (the converted dosage for hamster is 61.67 mg/kg) and 3× (the converted dosage for hamster is 92.50 mg/kg) dosages. At the same time, the clinically used anti-hyperlipidemic drug, Probucol, was used as comparison for evaluating the anti-hyperlipidemic effect. [table] Biostatistical analysis method: the results of the experiment were statistically tested based on one-way ANOVA by using SPSS 10.1 system. Then, the difference among the groups was tested by Duncan's Multiple Range Test. When the p value is smaller than 0.05 (P<0.05), it indicates statistically significant difference. When the concentration of total cholesterol and triglyceride in the liver is too high, the risk of developing fatty liver may increase. According to the present Experimental Example, the concentration changes in total cholesterol and triglyceride in the liver and feces of the tested animals are shown in Table 3.

[2] = tested on: hamsters fed with high cholesterol diet; assay: Animal experiments on lowering blood lipids: serum lipid profile
Protocol: as §1, with “difference. The experimental animals were sacrificed to have blood drawn and” for “difference. When”, “the results” for “the concentration”, “cholesterol (TC)” for “cholesterol”, “triglyceride (TG) were” for “triglyceride in the liver is too high, the risk of developing fatty liver may increase. According to the present Experimental Example, the concentration changes in total cholesterol and triglyceride in the liver and feces of the tested animals are”, “Table 2. […] Please continue to refer to Table 2 for the effects of astaxanthin compound composition on high-density lipoprotein cholesterol (HDL-C), low-density lipoprotein cholesterol (LDL-C) in hamsters fed with high cholesterol diet.” for “Table 3.”

[3] = tested on: hamsters fed with high cholesterol diet; assay: Animal experiments on lowering blood lipids: total cholesterol and triglyceride in the feces; conditions: Positive control (P), 124 mg/kg oral gavage, 8 weeks
Protocol: as §1, with “When the concentration of total cholesterol and triglyceride in the liver is too high, the risk of developing fatty liver may increase. According to the present Experimental Example, the concentration changes in total cholesterol and triglyceride in the liver and feces of the tested animals are shown in Table 3.” left out

[4] = Positive control (P), 124 mg/kg oral gavage, 8 weeks, high cholesterol diet

## CC(C)(Sc1cc(C(C)(C)C)c(O)c(C(C)(C)C)c1)Sc1cc(C(C)(C)C)c(O)c(C(C)(C)C)c1 [Probucol]
[1]; [4]
  liver TC: 3.80 ± 0.26 mg/g
  liver TG: 13.7 ± 1.5 mg/g
[1]; positive control (P) group, 124 mg/kg, p<0.05
  total cholesterol concentration in the liver compared with vehicle control group: significantly lower
[2]; [4]
  HDL-C in serum: 83 ± 11 mg/dL
  HDL-C/TC in serum: 0.707 ± 0.066
  LDL-C in serum: 31.8 ± 3.9 mg/dL
  LDL-C/HDL-C in serum: 0.392 ± 0.110
  LDL-C/TC in serum: 0.203 ± 0.032
  TC (total cholesterol) in serum: 157 ± 11 mg/dL
  TG (triglyceride) in serum: 152 ± 14 mg/dL
[2]; positive control group, 124 mg/kg, p<0.05
  total cholesterol in blood compared with vehicle control group: significantly lower
[3]
  feces TC: 6.7 ± 0.9 mg/g
  feces TG: 15.8 ± 2.8 mg/g
